Laboratory results: paper PMC12040169 (PLOS Biology, 2025)

Test: in vitro
Conditions: human, hela cells, % viability

In order of falling viability at 28.5 h, 10 µM:
1. O=C(NC1(c2ccccc2)CC1)c1ccc(-n2cnnc2)cc1 [CBK282778]  111%
2. CCC(CN1CCN(C)CC1)NC(=O)C1(c2cccc(F)c2)CC1 (stereo not drawn) [CBK282786]  110%
3. CC(C)(C)NC(=O)CCn1c(-c2cccnc2)cc2cccnc21 [CBK282691]  109%
4. Cn1cc(CN2CCN(CC3(c4ccccc4)CC3)CC2)cn1 [CBK282794]  109%
5. Cc1cccc(-c2noc(C)c2C(=O)NCCn2ccnc2C)c1 [CBK282633]  107%
6. Cc1nn(C)cc1S(=O)(=O)N1CCc2cc(Cl)ccc21 [CBK282802]  107%
7. CC1CC(C)CN(CCCNC(=O)c2cc(C(C)C)nn2C)C1 (stereo not drawn) [CBK282665]  106%
8. Cc1ncccc1-c1cc2cccnc2n1CCC(=O)NC1CC1 [CBK282690]  106%
9. Cc1cc2cc(C(=O)NCC3CCCN(C(C)C)C3)ccc2o1 (stereo not drawn) [CBK282625]  105%
10. CCc1cccc2c(CC(=O)NCCn3ccc(C)n3)c(C)[nH]c12 [CBK282698]  105%
11. Cc1nn(C)cc1CN1CCN(CC2(c3ccccc3)CC2)CC1 [CBK282721]  105%
12. C=Cn1ncc(CN2C3CCC2CC(O)(c2ccc(F)cc2)C3)c1C (stereo not drawn) [CBK282738]  104%
13. CCC(CN1CCN(C)CC1)NC(=O)C1(c2ccc(F)cc2)CC1 (stereo not drawn) [CBK282785]  104%
14. CCCn1cc(CN2CCC(O)(c3ccc(C)cc3)CC2)cn1 [CBK282737]  103%
15. CN(C)CCN1CCN(CC2(c3ccc(Cl)cc3)CC2)CC1 [CBK282783]  103%
16. CCn1ncc(S(=O)(=O)Nc2ccc3c(ccn3C)c2)c1C [CBK282730]  102%
17. O=S(=O)(NCC1(c2ccccc2)CCCC1)c1cccnc1 [CBK282762]  102%
18. O=C(c1ccccc1F)N1CCCC(c2n[nH]c3ncccc23)C1 (stereo not drawn) [CBK282672]  101%
19. Cc1ncccc1-c1cc2cccnc2n1CCCNC(=O)C1CC1C (stereo not drawn) [CBK282688]  101%
20. COc1ccccc1CCCNC(=O)CC1CCCCN1C (stereo not drawn) [CBK282694]  101%
21. COCC(=O)NC(Cc1ccsc1)c1nc(C)cs1 (stereo not drawn) [CBK282804]  99.5%
22. CCCn1cc(CN2C3CCC2CC(O)(c2ccccc2F)C3)cn1 (stereo not drawn) [CBK282664]  99.3%
23. COc1ccc(CC(=O)N(C)CCN2CCCCC2)cc1C [CBK282728]  99.3%
24. O=C(NC1(c2ccccc2)CC1)c1cccc(-n2cnnc2)c1 [CBK282779]  99.1%
25. O=C1CCCN1c1ccc(CN2CCC(O)(c3ccccc3)C2)cc1 (stereo not drawn) [CBK282808]  98.4%
26. O=C(Cn1c(-c2cccs2)cc2cccnc21)N1CCCCC1 [CBK282619]  98.1%
27. O=C(CC1CCS(=O)(=O)C1)NC1(c2ccc(Cl)cc2)CC1 (stereo not drawn) [CBK282773]  97.6%
28. O=C(CCN1Cc2ccccc2C1=O)NCCN1CCc2ccccc21 [CBK282632]  97.5%
29. C=CCN1CCC2(CC1)CN(C(C)=O)Cc1cc(C)ccc1O2 [CBK282693]  97.5%
30. O=C(NC1(c2ccccc2)CC1)c1cc(-n2cnnc2)ccc1Cl [CBK282777]  97.2%
31. CC1CCCCN1C(=O)CCn1c(-c2cccnc2)cc2cccnc21 (stereo not drawn) [CBK282692]  97.1%
32. CCn1cc(NC(=O)CCn2c(C(F)F)cc3cccnc32)cn1 [CBK282769]  97.1%
33. CN(C)CCN(Cc1cccnc1)C(=O)C1(c2ccccc2F)CC1 [CBK282771]  97%
34. C=C(C)CN1CCN(C(=O)c2[nH]c3ccc(OCC)cc3c2C)CC1 [CBK282666]  96.7%
35. CCC(CN1CCCC1)NC(=O)C1(c2ccccc2)CCOCC1 (stereo not drawn) [CBK282758]  96.6%
36. CN1CCC(N(CCO)CC2(c3ccc(Cl)cc3)CC2)CC1 [CBK282781]  96.6%
37. OC1(c2ccccc2)CCN(Cc2ccccc2-n2cccn2)C1 (stereo not drawn) [CBK282795]  96.5%
38. O=C(CCn1c(-c2cccnc2)cc2cccnc21)NC1CC1 [CBK282622]  95.9%
39. Cc1[nH]c2ccc(Cl)cc2c1CC(=O)N(C)CCN(C)C [CBK282700]  95.5%
40. CCC1CCCCN1CC(=O)N1CCCC1c1nc2ccccc2[nH]1 (stereo not drawn) [CBK282695]  93.5%
41. CCC(CN1CCOCC1)NC(=O)Cc1coc2cc(C)ccc12 (stereo not drawn) [CBK282791]  93.3%
42. OC1(c2cccnc2)CCN(CC2(c3ccc(Cl)cc3)CC2)CC1 [CBK282780]  93%
43. CCCC(NC(=O)C1C=CCN1S(C)(=O)=O)c1cccs1 (stereo not drawn) [CBK282668]  92.9%
44. CCC(CN1CCCC1)NC(=O)Cc1ccc(OC)c(C)c1 (stereo not drawn) [CBK282752]  92.9%
45. CCC(CN1CCOCC1)NC(=O)Cc1c(C)[nH]c2ccc(F)cc12 (stereo not drawn) [CBK282774]  92.6%
46. O=C(NCCCc1ccccn1)c1ccnc2ccc(Cl)cc12 [CBK282618]  92.4%
47. NC(=O)Cn1cc(CN2CCC(c3ccccc3)C2)c2ccccc21 (stereo not drawn) [CBK282803]  92.3%
48. CCC(CN1CCN(C)CC1)NC(=O)Cc1ccc2c(c1)CCC2 (stereo not drawn) [CBK282784]  92.2%
49. CN1CCC2(CC1)CC(NC(=O)C1CCCCC1)c1ccccc1O2 (stereo not drawn) [CBK282635]  91.6%
50. CC1(C(=O)NC2CCN(Cc3cccc(F)c3)CC2)CCCO1 (stereo not drawn) [CBK282658]  91.6%
51. COC(=O)Cn1c(-c2ccc(F)cc2)cc2cccnc21 [CBK282763]  91.5%
52. CC(C)C(=O)N1C[C@@H](N(C)C)[C@H](c2cn(C)c3ccccc23)C1 [CBK282717]  91.2%
53. CCC(CN1CCCC1)NC(=O)C1CC(=O)Nc2ccccc21 (stereo not drawn) [CBK282757]  90.6%
54. CCC(=O)NCCCn1c(-c2cccnc2C)cc2cccnc21 [CBK282646]  90.4%
55. Cc1n[nH]cc1CN(CCCn1ccnc1)Cc1cccc(F)c1 [CBK282650]  90.1%
56. CC(C)N(C(=O)Cn1nc(-c2cccs2)ccc1=O)C(C)C [CBK282638]  90%
57. NC[C@H]1CC[C@H](C(=O)NCC2CCCN(Cc3ccccc3)C2)CC1 (stereo partly drawn) [CBK282764]  89.6%
58. CC1(C(=O)NC(c2ccncc2)c2ccc(Cl)cc2)CCCO1 (stereo not drawn) [CBK282710]  89.5%
59. Cn1nc(C2CCCN(C(=O)C3CC3)C2)c2cccnc21 (stereo not drawn) [CBK282654]  89.4%
60. CC(NC(=O)C1C=CCN1S(C)(=O)=O)c1ccc2c(c1)CCC2 (stereo not drawn) [CBK282667]  88.7%
61. COc1ccc(C)cc1CC(=O)N(C)CCN1CCCCC1 [CBK282750]  88.7%
62. O=C(NCCCc1ccc(F)cc1)c1cccc(N2CCCC2=O)c1 [CBK282684]  88.6%
63. CC(C)N1CCC(CNC(=O)c2cc3ccccc3c(=O)s2)CC1 [CBK282711]  88.6%
64. Cc1ccc(C2(CN3CCC(NC(=O)CO)CC3)CCCC2)cc1 [CBK282628]  88.5%
65. C=C(C)CN1CCN(C(=O)CSc2nccc3ccccc23)CC1 [CBK282712]  88.4%
66. Cn1c(=O)n(C)c2cc(CNC3(c4ccccc4)CC3)ccc21 [CBK282746]  87.9%
67. O=C(CCn1c(-c2ccncc2)cc2cccnc21)NC1CCCCC1 [CBK282621]  87.8%
68. Cc1nn(C(C)CC(=O)NCCN2CCc3ccccc32)c(C)c1C (stereo not drawn) [CBK282675]  87.1%
69. Cc1ccn(CCNC(=O)CCN2Cc3ccccc3C2=O)n1 [CBK282655]  86.4%
70. O=C(NCCCc1ccccn1)c1cccc(N2CCCC2=O)c1 [CBK282643]  85.9%
71. CCc1n[nH]c(C(=O)NCC(c2ccc(F)cc2)N2CCCC2)c1C (stereo not drawn) [CBK282630]  85.8%
72. O=C(CCn1c(-c2cccnc2)cc2cccnc21)NC1CCCCC1 [CBK282647]  85.8%
73. Cc1ccc(C2(O)CCN(Cc3c(C)nc4sccn34)CC2)cc1 [CBK282734]  85.8%
74. C=CCC1(CC=C)CCN1C(=O)c1cccc(N2CCCC2=O)c1 [CBK282709]  85%
75. O=C(Cn1c(-c2ccco2)cc2cccnc21)N1CCCC1 [CBK282683]  84.8%
76. Cc1nn(C(C)CC(=O)NCC2CCN(C(C)C)CC2)c(C)c1C (stereo not drawn) [CBK282703]  84.2%
77. CCn1cc(S(=O)(=O)N2CCCC3(CCCCC3)C2)c(C)n1 [CBK282756]  83.9%
78. Cc1cc(C)c2c(CC(=O)N(C)CCN(C)C)c(C)[nH]c2c1 [CBK282732]  83.6%
79. CCC(CN1CCCC1)NC(=O)Cc1cc(C)ccc1OC (stereo not drawn) [CBK282759]  83.2%
80. Cc1cc2c(cc1Cl)C(=O)CC1(CCNCC1)O2 [CBK282715]  83.1%
81. COc1ccccc1CCCNC(=O)c1ccc(=O)n(C)c1 [CBK282636]  82.7%
82. NC[C@H]1CC[C@H](C(=O)NCCN2CCc3ccccc32)CC1 [CBK282723]  82.7%
83. Cc1ccn(CCNC(=O)c2cc3cccc(C)c3nc2C)n1 [CBK282645]  82.3%
84. Cc1nccn1CC1(O)CCN(Cc2c[nH]c3ccccc23)CC1 [CBK282671]  82.1%
85. CCC(NC(=O)Cc1c(C)nc(SC)[nH]c1=O)c1ccc(F)cc1 (stereo not drawn) [CBK282653]  81.7%
86. Cc1ncccc1-c1cc2cccnc2n1CCCNC(=O)C1CC1 [CBK282687]  81.5%
87. CCn1cc(CN2C3CCC2CC(O)(c2cccc(F)c2)C3)c(C)n1 (stereo not drawn) [CBK282755]  80.9%
88. Cc1ccc(C2(O)CCN(Cc3c(C)nc4cc(C)ccn34)CC2)cc1 [CBK282733]  80.5%
89. Cc1nn(C)cc1S(=O)(=O)Nc1ccc2c(ccn2C)c1 [CBK282806]  77.4%
90. CCC(CN1CCCC1)NC(=O)Cc1c(C)[nH]c2ccc(F)cc12 (stereo not drawn) [CBK282751]  76.4%
91. CC(=O)N1CCc2nc(NC(=O)c3cccs3)sc2C1 [CBK282680]  74.9%
92. CCn1cc(CC(=O)Nc2cccc(-n3cnnc3)c2)c2ccccc21 [CBK282669]  66.4%

Same assay, conditions: human, hela cells, % viability, bulk resorufin, single well

For `Cc1cccc(CNC(Cc2ccsc2)c2nccs2)n1` (stereo not drawn) [CBK282697], the viability at 28.5 h, 10 µM was 106%.
